Experimental data as given in patent publication US20080026996A1, “Selective Vpac2 Receptor Reptide Agonists” (ELI LILLY AND COMPANY, priority 2004, published 2008).
Where a SMILES comes first, the peptide text is derived from it. Where no end group is shown, it is not given here. [ ]: non-standard residue; d: D form. The star is where a group is joined. Hexanoyl = CCCCCC(=O)*; Aib = CC(C)(N)C(=O)O

Experiments:
[1] = molecular target: T1, human VPAC1 (Homo sapiens, UniProt P32241); assay: Filter binding assay, membranes of cells transiently transfected with human VPAC1, 125I-labeled VIP tracer (Table 2); design: expressed in transfected cells; conditions: read-out: Human VPAC1 Receptor Binding
T1 sequence (P32241 31-457): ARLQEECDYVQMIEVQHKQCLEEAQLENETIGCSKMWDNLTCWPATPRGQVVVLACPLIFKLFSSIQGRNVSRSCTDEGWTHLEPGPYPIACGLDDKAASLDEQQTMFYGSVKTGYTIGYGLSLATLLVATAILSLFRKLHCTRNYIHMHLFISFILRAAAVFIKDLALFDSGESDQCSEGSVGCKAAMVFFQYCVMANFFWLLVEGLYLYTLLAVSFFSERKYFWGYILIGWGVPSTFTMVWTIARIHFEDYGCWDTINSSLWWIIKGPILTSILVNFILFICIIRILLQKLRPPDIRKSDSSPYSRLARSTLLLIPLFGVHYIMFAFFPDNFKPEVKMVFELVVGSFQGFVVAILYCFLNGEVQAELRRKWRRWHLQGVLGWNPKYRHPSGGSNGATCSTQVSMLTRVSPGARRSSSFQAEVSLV
Procedure, shortened: (§1)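 Scintillation counting of filter-retained radioligand gave the read-out. Compounds competed with the labelled tracer (about 40000 cpm) for 2.5 μg membranes during 1 hour of shaking in HEPES pH 7.4 buffer containing 0.5% BSA.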

[2] = molecular target: T2, human PAC1 (Homo sapiens, UniProt P41586); assay: Filter binding assay, membranes of cells transiently transfected with human PAC1, 125I-labeled PACAP-27 tracer (Table 2); design: expressed in transfected cells; conditions: read-out: Human PAC1 Receptor Binding
T2 sequence (P41586 21-468): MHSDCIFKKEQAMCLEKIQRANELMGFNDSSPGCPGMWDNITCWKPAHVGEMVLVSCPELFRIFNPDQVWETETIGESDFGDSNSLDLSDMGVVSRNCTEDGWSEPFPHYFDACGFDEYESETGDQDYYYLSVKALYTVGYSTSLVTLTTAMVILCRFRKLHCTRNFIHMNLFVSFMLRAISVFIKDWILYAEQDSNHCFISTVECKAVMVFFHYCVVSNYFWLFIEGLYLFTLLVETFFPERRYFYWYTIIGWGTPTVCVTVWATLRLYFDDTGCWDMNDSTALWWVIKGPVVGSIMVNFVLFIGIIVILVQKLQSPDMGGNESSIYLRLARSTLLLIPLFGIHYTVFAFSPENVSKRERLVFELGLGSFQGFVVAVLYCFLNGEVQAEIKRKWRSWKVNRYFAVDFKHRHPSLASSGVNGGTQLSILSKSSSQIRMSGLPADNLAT
Procedure, shortened: as §1

[3] = Rat serum stability studies (remaining active peptide by DiscoveRx cAMP on CHO-VPAC2 cells); type: in vitro ADME
Description: Store the aliquot with aprotinin at 4° C. Store the aliquot without aprotinin at 37° C. […] […] Incubate in room temperature for 30 minutes. Remove the supernatant. […] Incubate on the shaker (300 rpm) for 1 hour. Proceed as normal with the DiscoveRx kit. Include cAMP standards in column 12. Determine EC50 values from the cAMP assay data.

[4] = molecular target: T3, human VPAC2 (Homo sapiens, UniProt P41587); assay: Filter binding assay, membranes of stable VPAC2 cell line, 125I-labeled VIP tracer (Table 2); conditions: read-out: Human VPAC2 Receptor Binding
T3 construct: expressed in transfected cells
T3 sequence (P41587 24-438): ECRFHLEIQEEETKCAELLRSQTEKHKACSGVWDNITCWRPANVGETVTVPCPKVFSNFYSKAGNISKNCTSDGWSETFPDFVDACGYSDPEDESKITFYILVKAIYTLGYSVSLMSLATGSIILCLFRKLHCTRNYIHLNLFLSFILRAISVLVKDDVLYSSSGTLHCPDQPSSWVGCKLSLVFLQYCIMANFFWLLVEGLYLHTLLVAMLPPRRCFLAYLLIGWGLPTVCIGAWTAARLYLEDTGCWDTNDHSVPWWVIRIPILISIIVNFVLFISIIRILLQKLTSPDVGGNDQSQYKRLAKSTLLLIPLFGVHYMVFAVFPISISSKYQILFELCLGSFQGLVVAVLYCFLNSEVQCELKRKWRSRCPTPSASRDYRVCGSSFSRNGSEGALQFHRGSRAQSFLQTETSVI
Procedure, shortened: as §1

[5] = molecular target: T3, human VPAC2; assay: Alpha screen cAMP in vitro potency, human VPAC2 receptor; type: cell-based; conditions: cAMP generation; single result from two analyses performed in a single run; read-out: Human VPAC2 Receptor: Alpha Screen EC50
Procedure, shortened: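 Cells were detached with enzyme-free dissociation buffer, washed into stimulation buffer and used at 50,000 cells per data point. Stimuli and AlphaScreen acceptor beads were added for 60 minutes, then lysis buffer with donor beads for 60 to 120 minutes; the AlphaScreen signal reports intracellular cAMP.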

Hexanoyl-HSDAVFTDNYTRLA[Aib]QVAA[Aib]KYLQSIKNKRYGGPSSGAPPPS [Agonist P301]
IC50 [1]: > 3000 nM
IC50 [2]: > 25000 nM
Rat Serum Stability (estimated purity in % after 18 hours) [3]: 6.86%
IC50 [4]: 7.27 nM

CCCCCC(=O)N[C@@H](Cc1c[nH]cn1)C(=O)N[C@@H](CO)C(=O)N[C@@H](CC(=O)O)C(=O)N[C@@H](C)C(=O)N[C@H](C(=O)N[C@@H](Cc1ccccc1)C(=O)N[C@H](C(=O)N[C@@H](CC(=O)O)C(=O)N[C@@H](CC(N)=O)C(=O)N[C@@H](Cc1ccc(O)cc1)C(=O)N[C@H](C(=O)N[C@@H](CCCNC(=N)N)C(=O)N[C@@H](CC(C)C)C(=O)NC(C)(C)C(=O)N[C@@H](CCCCN)C(=O)N[C@@H](CCC(N)=O)C(=O)N[C@H](C(=O)N[C@@H](C)C(=O)N[C@@H](C)C(=O)NC(C)(C)C(=O)N[C@@H](CCCCN)C(=O)N[C@@H](Cc1ccc(O)cc1)C(=O)N[C@@H](CC(C)C)C(=O)N[C@@H](CCC(N)=O)C(=O)N[C@@H](CO)C(=O)N[C@H](C(=O)N[C@@H](CCCCN)C(=O)N[C@@H](CCC(N)=O)C(=O)N[C@@H](CCCCN)C(=O)NCC(=O)NCC(=O)N1CCC[C@H]1C(=O)N[C@@H](CO)C(=O)N[C@@H](CO)C(=O)NCC(=O)N[C@@H](C)C(=O)N1CCC[C@H]1C(=O)N1CCC[C@H]1C(=O)N1CCC[C@H]1C(=O)N[C@@H](CO)C(=O)O)[C@@H](C)CC)C(C)C)[C@@H](C)O)[C@@H](C)O)C(C)C [Agonist P293] (Hexanoyl-HSDAVFTDNYTRL[Aib]KQVAA[Aib]KYLQSIKQKGGPSSGAPPPS-OH; C-terminus assumed)
IC50 [1]: > 3000 nM
IC50 [2]: > 25000 nM
Rat Serum Stability (estimated purity in % after 18 hours) [3]: 32.70%
IC50 [4]: 16.7 nM

Hexanoyl-HSDAVFTDNYTRL[Aib]KQLAAK[Aib]YLQSIKNKRYGGPSSGAPPPS [Agonist P241]
IC50 [1]: > 3000 nM
IC50 [2]: > 25000 nM
Rat Serum Stability (estimated purity in % after 18 hours) [3]: 62.55%
IC50 [4]: 18.1 nM

Hexanoyl-HSDAVFTDNYTRLRFQVAAKKYLQSIKNKRYGGPSSGAPPPS [Agonist P180]
IC50 [1]: > 3000 nM
IC50 [2]: 589 nM
Rat Serum Stability (estimated purity in % after 18 hours) [3]: 1.14%
IC50 [4]: 5.63 nM

Hexanoyl-HSDAVFTENYTRLRKQVAAKKYLQSIKNKRYGGPSSGAPPPS [Agonist P159]
IC50 [1]: 131 nM
Rat Serum Stability (estimated purity in % after 18 hours) [3]: 0.15%
IC50 [4]: 0.17 nM
EC50 [5]: 0.17 nM

Hexanoyl-HSDAVFTDNYTRLRKQVAAKLYLQSIKNKRYGGPSSGAPPPS [Agonist P185]
IC50 [1]: 358 nM
Rat Serum Stability (estimated purity in % after 18 hours) [3]: 0.27%
IC50 [4]: 0.41 nM
EC50 [5]: 0.18 nM

Hexanoyl-HSDAVFTDNYTRLRKQVAAKKILQSIKNKRYGGPSSGAPPPS [Agonist P133]
IC50 [1]: 470 nM
IC50 [2]: 1940 nM
Rat Serum Stability (estimated purity in % after 18 hours) [3]: <2.00%
IC50 [4]: 5.3 nM

CCCCCC(=O)N[C@@H](Cc1c[nH]cn1)C(=O)N[C@@H](CO)C(=O)N[C@@H](CC(=O)O)C(=O)N[C@@H](C)C(=O)N[C@H](C(=O)N[C@@H](Cc1ccccc1)C(=O)N[C@H](C(=O)N[C@@H](CC(=O)O)C(=O)N[C@@H](CC(N)=O)C(=O)N[C@@H](Cc1ccc(O)cc1)C(=O)N[C@H](C(=O)N[C@@H](CCCNC(=N)N)C(=O)N[C@@H](CC(C)C)C(=O)N[C@@H](CCCNC(=N)N)C(=O)N[C@@H](CCCCN)C(=O)N[C@@H](CCC(N)=O)C(=O)N[C@H](C(=O)N[C@@H](C)C(=O)N[C@@H](C)C(=O)N[C@@H](CCCCN)C(=O)N[C@@H](CCCNC(=N)N)C(=O)N[C@@H](Cc1ccc(O)cc1)C(=O)N[C@@H](CC(C)C)C(=O)N[C@@H](CCC(N)=O)C(=O)N[C@@H](CO)C(=O)N[C@H](C(=O)N[C@@H](CCCNC(=N)N)C(=O)N[C@@H](CC(N)=O)C(=O)NCC(=O)NCC(=O)N1CCC[C@H]1C(=O)N[C@@H](CO)C(=O)N[C@@H](CO)C(=O)NCC(=O)N[C@@H](C)C(=O)N1CCC[C@H]1C(=O)N1CCC[C@H]1C(=O)N1CCC[C@H]1C(=O)N[C@@H](CO)C(=O)O)[C@@H](C)CC)C(C)C)[C@@H](C)O)[C@@H](C)O)C(C)C [Agonist P213] (Hexanoyl-HSDAVFTDNYTRLRKQVAAKRYLQSIRNGGPSSGAPPPS-OH; C-terminus assumed)
IC50 [1]: 32.2 nM
Rat Serum Stability (estimated purity in % after 18 hours) [3]: 0.04%
IC50 [4]: 0.27 nM
EC50 [5]: 0.24 nM

Hexanoyl-HSDAVFTDNYTRL[Aib]KQVAA[Aib]KYLQSIKNKRYGGPSSGAPPPS [Agonist P242]
IC50 [1]: > 3000 nM
IC50 [2]: > 25000 nM
Rat Serum Stability (Estimated purity in % after 72 hours) [3]: 3.8%
Rat Serum Stability (estimated purity in % after 18 hours) [3]: 40.28%
IC50 [4]: 6.78 nM

Hexanoyl-HSDAVFTANYTRLRKQVAAKKYLQSIKNKRYGGPSSGAPPPS [Agonist P158]
IC50 [1]: 25.7 nM
Rat Serum Stability (estimated purity in % after 18 hours) [3]: 0.32%
IC50 [4]: 0.21 nM
EC50 [5]: 0.11 nM

Hexanoyl-HSDA[Aib]FTDNYTRLRKQVAAKKYLQSIKNKRYGGPSSGAPPPS [Agonist P212]
IC50 [1]: 198 nM
Rat Serum Stability (estimated purity in % after 18 hours) [3]: 0.21%
IC50 [4]: 0.19 nM
EC50 [5]: 0.12 nM

Hexanoyl-HSDAVFTDNYTRL[Aib]KQVAAAKYLQSIKNKRYGGPSSGAPPPS [Agonist P260]
IC50 [1]: 3320 nM
IC50 [2]: > 3000 nM
Rat Serum Stability (estimated purity in % after 18 hours) [3]: 28.57%
IC50 [4]: 4.79 nM

Hexanoyl-HSDAVFTDNYTRLR[Aib]QVAA[Aib]AYLQSIKNKRYGGPSSGAPPPS [Agonist P341]
IC50 [1]: > 3000 nM
Rat Serum Stability (estimated purity in % after 18 hours) [3]: 12.82%
IC50 [4]: 2.39 nM
EC50 [5]: 0.38 nM

Hexanoyl-HSDAVFTDNYTRL[Aib]KQVAAVKYLQSIKNKRYGGPSSGAPPPS [Agonist P269]
IC50 [1]: > 3000 nM
IC50 [2]: > 25000 nM
Rat Serum Stability (estimated purity in % after 18 hours) [3]: 23.85%
IC50 [4]: 10.1 nM

Hexanoyl-HSDAVFTDNYTRLR[Aib]QAAA[Aib]KYLQSIKNKRYGGPSSGAPPPS [Agonist P324]
IC50 [1]: > 3000 nM
Rat Serum Stability (estimated purity in % after 18 hours) [3]: 13.64%
IC50 [4]: 0.43 nM
EC50 [5]: 0.23 nM

Hexanoyl-HSDAVFTYNYTRLRKQVAAKKYLQSIKNKRYGGPSSGAPPPS [Agonist P163]
IC50 [1]: 35.7 nM
IC50 [2]: 238 nM
Rat Serum Stability (estimated purity in % after 18 hours) [3]: <1.25%
IC50 [4]: 2 nM

Hexanoyl-HSDAVFTDNYTRLLAKLAAQKYLQSIKNKRYGGPSSGAPPPS [Agonist P197]
IC50 [1]: 447 nM
Rat Serum Stability (estimated purity in % after 18 hours) [3]: 5.68%
IC50 [4]: 0.31 nM
EC50 [5]: 0.09 nM
